# Biological target: T1, CXCR3 (Homo sapiens, UniProt P49682)
# T1 sequence (P49682 1-368): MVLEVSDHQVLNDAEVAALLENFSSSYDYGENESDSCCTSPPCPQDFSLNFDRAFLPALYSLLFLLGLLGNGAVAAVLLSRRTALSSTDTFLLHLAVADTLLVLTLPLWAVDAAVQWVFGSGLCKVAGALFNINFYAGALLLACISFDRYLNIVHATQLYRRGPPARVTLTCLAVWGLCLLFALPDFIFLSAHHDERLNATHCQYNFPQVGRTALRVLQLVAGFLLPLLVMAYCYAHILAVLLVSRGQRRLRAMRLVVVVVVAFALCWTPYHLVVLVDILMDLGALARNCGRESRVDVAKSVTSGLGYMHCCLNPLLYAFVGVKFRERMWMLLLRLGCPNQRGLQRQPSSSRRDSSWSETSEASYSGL
# Test: CXCR3 Ca2+ mobilization (FLIPR), stable hCXCR3-CHO cell line, I-TAC stimulated
# Assay type: cell-based
# Design: host or cells: CHO cells stably expressing hCXCR3
# Conditions: hCXCR3-CHO cells, I-TAC 100 nM stimulated Ca2+ response; read-out: Ca-ITAC
# Experimental: Human chinese hamster ovary (CHO) cell line stably expressing hCXCR3 was purchased from Euroscreen (Belgium) and culture in HAM's F12 (Invitrogen) containing 10% heat inactivated fetal calf serum (Cancerra, Australia), 50 units ml−1 penicillin, 50 μml−1 streptomycin, (Invitrogen, USA) and 400 μg/ml geneticin (G418) (Calbiochem, San Diego), according to the manufacturer.
# CXCR3Ca^2+ mobilization was measured using a stable hCXCR3—CHO cell line and a microtiter-plate based assay using FLIPR^TETRA™ (Molecular Devices). In more detail, cells were harvested and plated into black 384-well plates (Becton-Dickinson) at a density of 15 000 cells per well and grown in the incubator for 18 hours. On the next day the media was aspirated and replaced with the cell loading buffer (HBSS—(Invitrogen) based buffer containing calcium indicator and signal enhancer from a commercial Ca2+ assay kit (Becton Dickinson). The plates were incubated for 60 minutes in the incubator, the test compounds were added and the plates equilibrated for 20 minutes at room temperature.
# Plates were placed into FLIPR and the CXCR3 agonist (I-TAC, 100 nM) stimulated fluorescence change was quantitated. The activity of CXCR3 antagonists was determined as percent of the CXCR3 ligand I-TAC in the absence of the test compounds (=100% activity).
row,IC50 [nM],Compound
1,1450,N#Cc1ccc(S(=O)(=O)N(Cc2ccc(C(=O)NCCc3ccc(S(N)(=O)=O)cc3)cc2)Cc2ccccn2)cc1 [Example 99]
2,300,N#Cc1ccc(S(=O)(=O)N(Cc2ccc(C(=O)NC3(c4cccc(Cl)c4)CC3)cc2)Cc2ccccn2)cc1 [Example 123]
3,2000,CCOc1ccc(S(=O)(=O)N(Cc2ccc(C(=O)N[C@H]3[C@@H]4CN(C(=O)OC(C)(C)C)C[C@@H]43)cc2)Cc2cccnc2)cc1 [Example 94]
4,8000,N#Cc1ccc(S(=O)(=O)N(Cc2ccc(C(=O)NCc3cccnc3)cc2)Cc2ccccn2)cc1 [Example 136]
5,4000,"N#Cc1ccc(CCN(Cc2ccccn2)S(=O)(=O)c2ccc(Cl)cc2)cc1 [Example 286, 4-Chloro-N-[2-(4-cyano-phenyl)-ethyl]-N-pyridin-2-ylmethyl-benzenesulfonamide]"
6,285,"O=C(NS(=O)(=O)c1cccnc1)c1ccc(CN(Cc2ccccn2)S(=O)(=O)c2ccc(Cl)cc2)cc1 [Example 52, N-(3-pyridylsulfonyl)-4-{[[(4-chlorophenyl)sulfonyl](pyridin-2-ylmethyl)amino]methyl}benzamide]"
7,6000,O=C(NC(Cc1ccc(O)cc1)C(=O)O)c1ccc(CN(Cc2ccccn2)S(=O)(=O)c2ccc(Cl)cc2)cc1 (stereo not drawn) [Example 354]
8,5500,N#Cc1ccc(S(=O)(=O)N(Cc2ccc(C(=O)NC3(c4ccc(OC(F)(F)F)cc4)CC3)cc2)Cc2ccccn2)cc1 [Example 282]
9,3100,N#Cc1ccc(CN(CCCc2ccccc2)S(=O)(=O)c2ccc(Cl)cc2)cc1 [Example 198]
10,1600,O=S(=O)(c1ccc(Cl)cc1)N(Cc1ccccc1)Cc1ccccc1-c1nnn[nH]1 [Example 229]
11,3000,CC(C)(Cc1ccccc1)N(Cc1ccc(-c2nnn[nH]2)cc1)S(=O)(=O)c1ccc(Cl)cc1 [Example 236]
12,1500,Cc1ccc(S(=O)(=O)N(Cc2ccc(C#N)cc2)Cc2ccccn2)cc1 [Example 174]
13,6000,CCOc1ccc(S(=O)(=O)N(Cc2ccc(Oc3ccncc3)cc2)Cc2ccccn2)cc1 [Example 270]
14,1100,O=S(=O)(c1cccc(Oc2ccccc2)c1)N(Cc1ccc(-c2nnn[nH]2)cc1)Cc1ccccn1 [Example 165]
15,20000,O=C(O)c1ccc(CN(Cc2cnccn2)S(=O)(=O)c2ccc(Cl)cc2)cc1 [Example 319]
16,9000,CCOc1ccc(S(=O)(=O)N(Cc2ccc(N3CCOCC3)cc2)Cc2ccccn2)cc1 [Example 269]
17,3000,CN(C)c1ccc(CNC(=O)c2ccc(CN(Cc3ccccn3)S(=O)(=O)c3ccc(C#N)cc3)cc2)cn1 [Example 148]
18,2000,O=C(N[C@H](Cc1ccccc1)C(=O)O)c1ccc(CN(Cc2ccccn2)S(=O)(=O)c2ccc(Cl)cc2)cc1 [Example 153]
19,25000,O=S(=O)(c1ccccc1Oc1ccccc1)N(Cc1ccc(-c2nnn[nH]2)cc1)Cc1ccccn1 [Example 237]
20,2000,O=C(O)c1ccc(CNC(=O)c2ccc(CN(Cc3ccccn3)S(=O)(=O)c3ccc(Cl)cc3)cc2)cc1 [Example 133]
21,10000,"COc1cccc(CN(Cc2ccc(C(=O)NCc3ccccc3)cc2)S(=O)(=O)c2ccc(Cl)cc2)c1 [Example 38, 4-{[(4-Chloro-benzenesulfonyl)-(3-methoxybenzyl)-amino]-methyl}-N-phenyl methyl benzamide]"
22,2800,O=S(=O)(c1ccc(Cl)cc1)N(Cc1cccc(-c2nnn[nH]2)c1)Cc1ccccn1 [Example 228]

row,IC50 [nM],Compound
1,1800,CCOc1ccc(S(=O)(=O)N(Cc2ccc(C(=O)N[C@H]3[C@@H]4CN(C(C)=O)C[C@@H]43)cc2)Cc2cccnc2)cc1 [Example 108]
2,4500,CCOc1ccc(S(=O)(=O)N(Cc2ccc(C(=O)NCC(C)c3ccccc3)cc2)Cc2cccnc2)cc1 (stereo not drawn) [Example 206]
3,5500,N#Cc1ccc(CN(C2CCc3cc(Cl)ccc32)S(=O)(=O)c2ccc(Cl)cc2)cc1 (stereo not drawn) [Example 299]
4,10000,Cc1cccc(S(=O)(=O)N(Cc2ccc(-c3nnn[nH]3)cc2)Cc2ccccn2)c1 [Example 311]
5,2000,CCOc1ccc(S(=O)(=O)N(Cc2ccc(C(=O)N[C@H]3[C@@H]4CN(C(=O)c5ccc(OC(F)(F)F)cc5)C[C@@H]43)cc2)Cc2cccnc2)cc1 [Example 116]
6,850,CCOc1ccc(C2(NC(=O)c3ccc(CN(Cc4ccccn4)S(=O)(=O)c4ccc(Cl)cc4)cc3)CC2)cc1 [Example 128]
7,750,O=C(N[C@H](C(=O)O)c1ccccc1)c1ccc(CN(Cc2ccccn2)S(=O)(=O)c2ccc(Cl)cc2)cc1 [Example 152]
8,150,O=C(NCc1ccccc1)c1ccc(CN(Cc2ccccc2)S(=O)(=O)c2ccc(Cl)nc2)cc1 [Example 36]
9,3450,O=S(=O)(c1ccc(Cl)cc1)N(Cc1ccc(-c2nnn[nH]2)cc1)Cc1ccccc1-c1ccccc1 [Example 103]
10,4000,O=C(NC1(c2ccccc2)CC1)c1ccc(CN(Cc2cnccn2)S(=O)(=O)c2ccc(Cl)cc2)cc1 [Example 187]
11,2000,Cc1ccc(S(=O)(=O)N(Cc2ccc(-c3nnn[nH]3)cc2)Cc2ccccn2)cc1 [Example 139]
12,13000,O=C(NCC1CC1)c1ccc(CN(Cc2ccccn2)S(=O)(=O)c2ccc(Cl)c(Cl)c2)cc1 [Example 45]
13,1000,O=C(Nc1ccc(CN(Cc2ccccn2)S(=O)(=O)c2ccc(Cl)cc2)cc1)C(O)c1cccc(Cl)c1 (stereo not drawn) [Example 184]
14,13000,COc1cc(OC)nc(CN(Cc2ccc(C(=O)O)cc2)S(=O)(=O)c2ccc(Cl)cc2)n1 [Example 328]
15,1500,N#Cc1ccc(S(=O)(=O)N(Cc2ccc(C(=O)NC3(c4cccc(C#N)c4)CC3)cc2)Cc2cccnc2)cc1 [Example 111]
16,1450,CC(C)(C)c1ccc(S(=O)(=O)N(Cc2ccc(C#N)cc2)Cc2ccccn2)cc1 [Example 177]
17,2000,CCOc1ccc(S(=O)(=O)N(Cc2ccc(C(=O)NCCc3ccc(S(N)(=O)=O)cc3)cc2)Cc2cccnc2)cc1 [Example 95]
18,1500,O=S(=O)(c1ccc(Cl)cc1)N(Cc1ccccc1)Cc1cccc(-c2nnn[nH]2)c1 [Example 234]
19,5000,CC(c1cccc(-c2nnn[nH]2)c1)N(Cc1ccccc1)S(=O)(=O)c1ccc(Cl)cc1 (stereo not drawn) [Example 271]
20,10000,"N#Cc1ccc(CN(C(=O)c2ccccn2)S(=O)(=O)c2ccc(Cl)cc2)cc1 [Example 279, 4-Chloro-N-(4-cyano-benzyl)-N-(pyridine-2-carbonyl)-benzenesulfonamide]"
21,6000,"COc1ccc(CN(Cc2ccc(C(=O)NCc3ccccc3)cc2)S(=O)(=O)c2ccc(Cl)cc2)cc1 [Example 35, 4-{[(4-Chloro-benzenesulfonyl)-(4-methoxybenzyl)-amino]-methyl}-N-phenyl methyl benzamide]"
22,700,N#Cc1ccc(CN(Cc2ccccn2)S(=O)(=O)c2ccc([N+](=O)[O-])cc2)cc1 [Example 172]

# Biological target: T1, CXCR3
# Test: Chemotaxis assay ITAC (CXCL11), L1.2-CXCR3 cells
# Assay type: cell-based
# Design: expressed in transfected cells
# Conditions: 1 nM CXCL11 (I-TAC), 4 hours
# Experimental: Human CXCR3 cDNA was amplified by PCR from a human cells cDNA library (Clontech) and subcloned into pcDNA3.1 (Invitrogen). Murine pre-B L1.2 cells were transfected with hCXCR3-pcDNA3.1 and were grown at 37° C., 5% CO2 in RPMI 1640 medium (Invitrogen, USA) supplemented with 5% heat inactivated fetal calf serum (Cancerra, Australia), 2 mM glutamine (Invitrogen), 50 units ml−1 penicillin, 50 μml−1 streptomycin. Stable transfectant clonal populations were selected using 800 μg/ml geneticin.
# L1.2-CXCR3 cells were grown for 24 hours at 0.5×10^6 cells/ml in chemotaxis medium containing 5 mM butyric acid (Sigma). Compounds were on one hand mixed with 1 nM of CXCL11 (I-TAC) in phenol-red free RPMI 1640 (invitrogen) supplemented with 5% fetal bovine serum in presence of 1% DMSO. The CXCL11/compounds mixture was then added to lower chambers of chemotaxis 96 well microplates (neuroprobe), and framed filters ([…] pore size) were put on top of the lower chambers. Compounds were on the other hand mixed with L1.2 CXCR3 cells and incubated in chemotaxis medium at 1.5×10^6 cells/ml in presence of 1% DMSO at 37° C., 5% CO2 for 30 minutes. Cells/compounds mixture was then added on top of the frame filters and migration was performed at 37° C., 5% CO2 for 4 hours. The number of migrated cells in the bottom chamber was determined using the CyQuant GR dye (Molecular Probe), according to the manufacturer.
row,IC50 [nM],Compound
1,1030,N#Cc1ccc(S(=O)(=O)N(Cc2ccc(C(=O)NCCc3ccc(S(N)(=O)=O)cc3)cc2)Cc2ccccn2)cc1 [Example 99]
2,60,N#Cc1ccc(S(=O)(=O)N(Cc2ccc(C(=O)NC3(c4cccc(Cl)c4)CC3)cc2)Cc2ccccn2)cc1 [Example 123]
3,260,CCOc1ccc(S(=O)(=O)N(Cc2ccc(C(=O)N[C@H]3[C@@H]4CN(C(=O)OC(C)(C)C)C[C@@H]43)cc2)Cc2cccnc2)cc1 [Example 94]
4,930,N#Cc1ccc(S(=O)(=O)N(Cc2ccc(C(=O)NCc3cccnc3)cc2)Cc2ccccn2)cc1 [Example 136]
5,4270,C[C@@H](c1ccc(NC(=O)C2(c3ccccc3)CC2)cc1)N(Cc1ccccn1)S(=O)(=O)c1ccc(Cl)cc1 [Example 164]
6,2980,"O=C(NCC1CC1)c1ccc(CN(Cc2cccc[n+]2[O-])S(=O)(=O)c2ccc(Cl)cc2)cc1 [Example 134, 4-{[(4-Chloro-benzenesulfonyl)-(1-oxy-pyridin-2-ylmethyl)-amino]-methyl}-N-cyclopropylmethyl-benzamide]"
7,4450,N#Cc1ccc(S(=O)(=O)N(Cc2ccccn2)C2(c3ccc(C(=O)NC4(c5ccccc5)CC4)cc3)CC2)cc1 [Example 176]
